Publication PMC6458995, “MAP4K4 Inhibition Promotes Survival of Human Stem Cell-Derived Cardiomyocytes and Reduces Infarct Size In Vivo” (Cell Stem Cell, 2019)
Like-named read-outs stand apart in the source and are kept apart here.

Columns and labels:
RSK1 = molecular target: T1, RSK1 (Homo sapiens, UniProt Q15418); assay: Dundee kinase panel; format: biochemical; conditions: for remaining activity at 1 µM: read-out: residual activity
T1 construct: lines 1-140) and Reaction Biology
Description: (§1) Compounds were screened at 1 μM. For key hits, pIC50 values were then determined by HTRF as above. […] Stability in mouse and human liver microsomes was determined by Cyprotex.

PHK = assay: Dundee kinase panel; format: biochemical, human; conditions: 1 μM
Description: as §1

AMPK = assay: Dundee kinase panel; format: biochemical, human; conditions: 1 μM
Description: as §1

recombinant human MAP4K4 = molecular target: T2, recombinant human MAP4K4 (Homo sapiens, UniProt O95819); assay: In vitro MAP4K4 kinase activity assay (HTRF Transcreener ADP); format: biochemical
T2 construct: Human MAP4K4 kinase domain (aa 1-328); purchased Invitrogen PV3687
Description: MAP4K4 kinase activity was monitored using the CisBio HTRF Transcreener ADP assay, a competitive immunoassay with a reproducible Z’ > 0.6. In the detection step, endogenous ADP and d2-labeled ADP compete for binding an anti-ADP monoclonal antibody labeled with Eu^3+ cryptate. […] Assays were run in Greiner low volume plates with a final reaction volume of 10 μl. Percent inhibition was calculated from 100% activity of MAP4K4 (DMSO only) and 0% activity (no enzyme added). Data were either reported as % inhibition at a single dose or as pIC50 values derived from dose response curves (pIC50 = -log[IC50]).

MARK1 = molecular target: T3, MARK1 (Homo sapiens, UniProt Q9P0L2); assay: Dundee kinase panel; format: biochemical; conditions: for remaining activity at 1 µM: read-out: residual activity
T3 construct: lines 1-140) and Reaction Biology
Description: (§2) Kinase selectivity profiling was performed by the International Centre for Kinase Profiling, MRC Protein Phosphorylation and Ubiquitylation Unit (141 kinases; Premier Screen, http://www.kinase-screen.mrc.ac.uk), using a [γ-^33P]ATP filter binding assay ([Bain et al., 2007]). Compounds were screened at 1 μM. For key hits, pIC50 values were then determined by HTRF as above. More complete kinome profiling was performed by Reaction Biology (376 kinases). Stability in mouse and human liver microsomes was determined by Cyprotex.

DYRK1A = molecular target: T4, DYRK1A (Homo sapiens, UniProt Q13627); assay: Dundee kinase panel; format: biochemical; conditions: for remaining activity at 1 µM: read-out: residual activity
T4 construct: lines 1-140) and Reaction Biology
Description: as §2

TGFBR1 = molecular target: T5, TGFBR1 (Homo sapiens, UniProt P36897); assay: Dundee kinase panel; format: biochemical; conditions: for remaining activity at 1 µM: read-out: residual activity
T5 construct: lines 1-140) and Reaction Biology
T5 sequence (P36897 34-503): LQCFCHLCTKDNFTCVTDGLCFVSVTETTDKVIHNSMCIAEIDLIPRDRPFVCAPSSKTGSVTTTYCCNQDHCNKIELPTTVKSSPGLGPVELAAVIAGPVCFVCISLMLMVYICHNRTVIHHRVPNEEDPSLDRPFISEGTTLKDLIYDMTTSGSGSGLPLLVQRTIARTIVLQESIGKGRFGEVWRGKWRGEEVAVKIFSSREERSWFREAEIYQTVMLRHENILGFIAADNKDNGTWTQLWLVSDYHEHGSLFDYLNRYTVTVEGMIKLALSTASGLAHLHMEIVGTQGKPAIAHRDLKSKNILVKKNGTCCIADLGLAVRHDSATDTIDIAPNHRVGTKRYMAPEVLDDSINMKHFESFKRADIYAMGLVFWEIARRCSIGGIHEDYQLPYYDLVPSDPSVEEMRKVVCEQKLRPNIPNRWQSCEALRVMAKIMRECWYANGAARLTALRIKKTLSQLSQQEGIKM
Description: as §2

ULK2 = molecular target: T6, ULK2 (Homo sapiens, UniProt Q8IYT8); assay: Dundee kinase panel; format: biochemical; conditions: for remaining activity at 1 µM: read-out: residual activity
T6 construct: lines 1-140) and Reaction Biology
T6 sequence (Q8IYT8 1-1036): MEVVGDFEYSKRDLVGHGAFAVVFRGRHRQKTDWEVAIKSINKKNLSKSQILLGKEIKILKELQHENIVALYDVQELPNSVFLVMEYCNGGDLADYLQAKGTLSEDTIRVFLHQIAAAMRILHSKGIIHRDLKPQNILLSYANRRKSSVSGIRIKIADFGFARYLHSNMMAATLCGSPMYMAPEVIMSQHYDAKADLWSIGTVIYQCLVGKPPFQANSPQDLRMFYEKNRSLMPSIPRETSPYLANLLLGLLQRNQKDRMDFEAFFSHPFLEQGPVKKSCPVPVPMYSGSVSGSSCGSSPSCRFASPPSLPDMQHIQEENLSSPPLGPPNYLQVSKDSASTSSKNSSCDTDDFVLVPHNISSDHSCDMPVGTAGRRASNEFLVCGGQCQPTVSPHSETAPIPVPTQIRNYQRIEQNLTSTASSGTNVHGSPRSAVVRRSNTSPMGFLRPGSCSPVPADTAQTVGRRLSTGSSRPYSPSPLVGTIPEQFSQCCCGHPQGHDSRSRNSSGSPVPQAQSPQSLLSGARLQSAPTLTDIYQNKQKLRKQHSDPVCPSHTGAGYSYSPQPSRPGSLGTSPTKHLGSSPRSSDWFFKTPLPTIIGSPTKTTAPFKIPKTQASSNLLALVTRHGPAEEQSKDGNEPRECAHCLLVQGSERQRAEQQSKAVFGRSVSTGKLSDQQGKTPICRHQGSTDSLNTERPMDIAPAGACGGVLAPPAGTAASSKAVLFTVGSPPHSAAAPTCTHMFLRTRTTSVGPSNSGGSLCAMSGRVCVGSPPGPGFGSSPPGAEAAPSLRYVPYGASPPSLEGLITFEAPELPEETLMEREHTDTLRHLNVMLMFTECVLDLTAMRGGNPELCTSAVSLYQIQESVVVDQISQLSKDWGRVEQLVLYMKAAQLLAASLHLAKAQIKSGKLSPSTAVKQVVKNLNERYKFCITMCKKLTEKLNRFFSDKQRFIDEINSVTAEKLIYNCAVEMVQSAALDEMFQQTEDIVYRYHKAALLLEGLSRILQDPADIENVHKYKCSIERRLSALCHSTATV
Description: as §2

MAP4K5 = molecular target: T7, MAP4K5 (Homo sapiens, UniProt Q9Y4K4); assay: Dundee kinase panel; format: biochemical; conditions: for remaining activity at 1 µM: read-out: residual activity
T7 construct: lines 1-140) and Reaction Biology
Description: as §2

ERK5 = molecular target: T8, ERK5 (Homo sapiens, UniProt Q13164); assay: Dundee kinase panel; format: biochemical; conditions: for remaining activity at 1 µM: read-out: residual activity
T8 construct: lines 1-140) and Reaction Biology
Description: as §2

Src = molecular target: T9, Src (Homo sapiens, UniProt P12931); assay: Dundee kinase panel; format: biochemical; conditions: for remaining activity at 1 µM: read-out: residual activity
T9 construct: lines 1-140) and Reaction Biology
Description: as §2

MINK1 = molecular target: T10, MINK1 (Homo sapiens, UniProt Q8N4C8); assay: Dundee kinase panel; format: biochemical; conditions: for remaining activity at 1 µM: read-out: residual activity
T10 construct: lines 1-140) and Reaction Biology
Description: as §2

[1] = dose-response, Figure 2C, read-out: IC50 against recombinant human MAP4K4
[2] = MAP4K4, HTRF Transcreener ADP assay, read-out: pIC50 (converted)

T8 sequence (Q13164 whole entry): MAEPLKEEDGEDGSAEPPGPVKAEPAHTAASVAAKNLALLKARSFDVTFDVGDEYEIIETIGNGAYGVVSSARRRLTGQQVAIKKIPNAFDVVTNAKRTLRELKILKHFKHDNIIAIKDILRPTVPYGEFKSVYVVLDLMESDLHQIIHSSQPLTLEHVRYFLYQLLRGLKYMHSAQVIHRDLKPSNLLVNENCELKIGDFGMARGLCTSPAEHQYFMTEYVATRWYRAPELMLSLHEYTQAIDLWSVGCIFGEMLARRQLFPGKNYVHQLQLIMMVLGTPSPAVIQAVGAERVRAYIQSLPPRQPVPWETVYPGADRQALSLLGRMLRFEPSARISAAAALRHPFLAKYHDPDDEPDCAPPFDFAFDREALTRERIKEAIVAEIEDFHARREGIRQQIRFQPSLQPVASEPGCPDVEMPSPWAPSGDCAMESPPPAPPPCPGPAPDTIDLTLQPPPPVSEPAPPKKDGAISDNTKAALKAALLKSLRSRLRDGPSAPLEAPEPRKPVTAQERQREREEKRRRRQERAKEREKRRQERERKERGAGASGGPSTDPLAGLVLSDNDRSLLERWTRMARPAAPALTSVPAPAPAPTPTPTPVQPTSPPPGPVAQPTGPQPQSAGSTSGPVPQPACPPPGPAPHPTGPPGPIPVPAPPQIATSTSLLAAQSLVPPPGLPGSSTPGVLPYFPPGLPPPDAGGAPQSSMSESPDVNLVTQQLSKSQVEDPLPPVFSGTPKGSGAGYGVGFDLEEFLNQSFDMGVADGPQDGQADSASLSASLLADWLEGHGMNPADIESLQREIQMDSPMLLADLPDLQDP
T2 sequence (O95819 1-328): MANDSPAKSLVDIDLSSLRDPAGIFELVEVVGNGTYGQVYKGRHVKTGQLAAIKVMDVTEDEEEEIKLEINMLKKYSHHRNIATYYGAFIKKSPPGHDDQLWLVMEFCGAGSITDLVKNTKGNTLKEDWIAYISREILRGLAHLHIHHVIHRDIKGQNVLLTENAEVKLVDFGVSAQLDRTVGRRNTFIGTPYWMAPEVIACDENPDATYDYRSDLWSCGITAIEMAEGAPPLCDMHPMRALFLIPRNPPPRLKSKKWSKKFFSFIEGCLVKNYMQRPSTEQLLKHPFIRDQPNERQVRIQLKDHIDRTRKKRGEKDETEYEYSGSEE
T7 sequence (Q9Y4K4 whole entry): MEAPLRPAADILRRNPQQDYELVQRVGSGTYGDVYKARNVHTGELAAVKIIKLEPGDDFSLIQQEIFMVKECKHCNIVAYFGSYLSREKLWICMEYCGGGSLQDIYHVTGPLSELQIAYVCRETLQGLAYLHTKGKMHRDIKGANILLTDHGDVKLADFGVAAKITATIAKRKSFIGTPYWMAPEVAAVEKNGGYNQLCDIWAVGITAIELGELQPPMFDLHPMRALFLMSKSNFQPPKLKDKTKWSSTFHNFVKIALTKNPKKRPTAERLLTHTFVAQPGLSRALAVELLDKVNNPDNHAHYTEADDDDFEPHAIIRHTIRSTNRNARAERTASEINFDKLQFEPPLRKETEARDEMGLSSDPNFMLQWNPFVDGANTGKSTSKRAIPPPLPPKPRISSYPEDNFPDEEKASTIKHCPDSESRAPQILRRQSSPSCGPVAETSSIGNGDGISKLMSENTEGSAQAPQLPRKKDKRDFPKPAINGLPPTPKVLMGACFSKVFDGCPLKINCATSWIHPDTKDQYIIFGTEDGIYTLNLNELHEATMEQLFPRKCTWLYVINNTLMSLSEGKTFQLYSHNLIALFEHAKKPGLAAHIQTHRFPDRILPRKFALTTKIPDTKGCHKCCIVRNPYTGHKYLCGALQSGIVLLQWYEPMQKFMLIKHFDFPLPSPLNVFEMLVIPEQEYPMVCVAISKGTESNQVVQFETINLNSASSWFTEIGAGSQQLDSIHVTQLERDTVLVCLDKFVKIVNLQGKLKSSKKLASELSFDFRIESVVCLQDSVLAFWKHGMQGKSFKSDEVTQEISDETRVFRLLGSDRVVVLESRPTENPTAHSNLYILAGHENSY
T9 sequence (P12931 whole entry): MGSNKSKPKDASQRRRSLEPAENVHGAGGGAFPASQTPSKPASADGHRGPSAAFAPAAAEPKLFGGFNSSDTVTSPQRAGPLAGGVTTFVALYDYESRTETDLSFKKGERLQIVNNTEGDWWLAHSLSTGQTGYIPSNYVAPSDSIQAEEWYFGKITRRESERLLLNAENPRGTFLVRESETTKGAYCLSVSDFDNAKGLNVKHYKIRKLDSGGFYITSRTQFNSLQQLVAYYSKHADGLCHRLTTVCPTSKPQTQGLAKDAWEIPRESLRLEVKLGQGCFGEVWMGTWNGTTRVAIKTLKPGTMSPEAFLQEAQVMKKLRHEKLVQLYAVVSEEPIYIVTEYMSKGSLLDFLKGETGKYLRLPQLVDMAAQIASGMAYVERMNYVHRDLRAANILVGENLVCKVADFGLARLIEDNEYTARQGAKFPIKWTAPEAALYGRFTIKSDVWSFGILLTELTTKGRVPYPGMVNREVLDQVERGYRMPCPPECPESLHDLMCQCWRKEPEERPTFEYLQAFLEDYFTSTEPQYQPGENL
T3 sequence (Q9P0L2 whole entry): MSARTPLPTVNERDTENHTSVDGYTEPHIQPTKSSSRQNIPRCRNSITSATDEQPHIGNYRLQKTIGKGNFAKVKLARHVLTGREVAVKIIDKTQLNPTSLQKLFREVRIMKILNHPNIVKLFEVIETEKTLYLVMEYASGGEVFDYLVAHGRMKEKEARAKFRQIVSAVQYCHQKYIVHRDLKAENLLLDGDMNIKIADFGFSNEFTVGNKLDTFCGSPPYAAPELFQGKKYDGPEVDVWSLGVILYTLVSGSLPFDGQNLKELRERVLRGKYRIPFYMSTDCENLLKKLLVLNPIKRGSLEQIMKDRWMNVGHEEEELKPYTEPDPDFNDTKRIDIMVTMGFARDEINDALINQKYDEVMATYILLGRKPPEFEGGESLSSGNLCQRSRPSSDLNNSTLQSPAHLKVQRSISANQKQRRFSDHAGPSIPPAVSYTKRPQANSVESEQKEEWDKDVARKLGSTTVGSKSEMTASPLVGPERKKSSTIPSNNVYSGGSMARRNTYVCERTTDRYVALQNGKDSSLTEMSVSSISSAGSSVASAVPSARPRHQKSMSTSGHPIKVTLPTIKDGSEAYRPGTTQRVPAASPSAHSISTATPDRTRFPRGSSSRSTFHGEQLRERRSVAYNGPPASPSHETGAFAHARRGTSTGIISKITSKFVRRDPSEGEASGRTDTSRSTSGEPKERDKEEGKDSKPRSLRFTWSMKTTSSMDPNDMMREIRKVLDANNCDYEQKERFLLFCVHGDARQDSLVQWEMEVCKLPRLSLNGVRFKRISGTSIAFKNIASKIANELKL
T1 sequence (Q15418 whole entry): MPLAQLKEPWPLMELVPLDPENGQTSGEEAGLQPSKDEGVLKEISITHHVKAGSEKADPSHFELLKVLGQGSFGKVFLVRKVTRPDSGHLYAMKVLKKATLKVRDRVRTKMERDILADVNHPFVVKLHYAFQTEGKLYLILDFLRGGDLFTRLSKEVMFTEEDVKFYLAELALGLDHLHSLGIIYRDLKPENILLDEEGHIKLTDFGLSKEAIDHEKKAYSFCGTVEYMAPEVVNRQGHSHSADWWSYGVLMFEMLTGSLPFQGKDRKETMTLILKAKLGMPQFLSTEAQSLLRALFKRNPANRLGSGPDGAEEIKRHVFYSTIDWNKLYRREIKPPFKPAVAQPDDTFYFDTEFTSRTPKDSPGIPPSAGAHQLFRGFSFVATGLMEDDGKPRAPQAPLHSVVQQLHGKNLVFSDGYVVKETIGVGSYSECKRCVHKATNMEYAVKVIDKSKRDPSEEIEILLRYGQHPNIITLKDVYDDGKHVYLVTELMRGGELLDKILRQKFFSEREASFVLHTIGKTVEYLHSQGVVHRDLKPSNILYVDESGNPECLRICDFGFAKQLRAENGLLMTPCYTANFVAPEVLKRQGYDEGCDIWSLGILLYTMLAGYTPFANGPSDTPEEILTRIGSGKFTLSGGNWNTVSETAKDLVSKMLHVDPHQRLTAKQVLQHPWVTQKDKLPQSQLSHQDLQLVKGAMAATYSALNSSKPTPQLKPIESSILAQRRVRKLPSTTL

Row | SMILES | remaining activity at 1 µM (RSK1) [%] | residual activity (PHK) [%] | residual activity (AMPK) [%] | IC50 (recombinant human MAP4K4; [1]) [nM] | remaining activity at 1 µM (MARK1) [%] | remaining activity at 1 µM (DYRK1A) [%] | remaining activity at 1 µM (TGFBR1) [%] | remaining activity at 1 µM (ULK2) [%] | remaining activity at 1 µM (MAP4K5) [%] | remaining activity at 1 µM (ERK5) [%] | remaining activity at 1 µM (Src) [%] | remaining activity at 1 µM (MINK1) [%] | IC50 (recombinant human MAP4K4; [2]) [nM] | further results
1 | O=C1Cc2c([nH]c3ccc(Br)cc23)-c2ccccc2N1 [Kenpaullone] | 84 | 20 | 64 | 30 |  |  |  |  |  |  |  |  |  | 
2 | O=C1Nc2ccc(I)cc2/C1=C/c1cc(Br)c(O)c(Br)c1 [GW5074] | 32 | 26 | 42 | 30 |  |  |  |  |  |  |  |  |  | 
3 | Nc1ncc(C(=O)NC2CN(C(=O)C3CC3)C2)c2ccc(-c3cccc(F)c3)nc12 [GNE-495] |  | 96 | 81 |  |  |  |  |  |  |  |  |  |  | residual activity (RSK1; 1 μM): 65%; residual activity (MARK1; 1 μM): 57%; residual activity (DYRK1A; 1 μM): 55%; residual activity (TGFBR1; 1 μM): 94%; residual activity (ULK2; 1 μM): 100%; residual activity (MAP4K5; 1 μM): 45%; residual activity (ERK5; 1 μM): 96%; residual activity (Src; 1 μM): 122%; residual activity (MINK1; 1 μM): 2%
4 | Oc1ncnc2c1c(-c1ccccc1)cn2-c1ccccc1 [F1386-0303, 5,7-diphenyl-7H-pyrrolo[2,3-d]pyrimidin-4-ol] | 89 | 106 | 114 | 34 | 87 | 108 | 141 | 86 | 82 | 93 | 118 | 11 | 34.7 | 
5 | COCCOc1ccc(-c2cn(-c3ccccc3)c3nc[nH]c(=O)c23)cc1 [DMX-5804, 5-[4-(2-methoxy-ethoxy)-phenyl]-7-phenyl-3,7-dihydro-pyrrolo[2,3-d]pyrimidin-4-one] | 86 | 102 | 87 |  | 81 | 110 | 95 | 89 | 44 | 115 | 92 | 2 | 2.82 | fold greater potency compared with F1386-0303 (recombinant human MAP4K4): 10 fold
